Laboratory results reported in US7906128B2, “Use of neuronal sodium channel antagonists for the control of ectoparasites in homeothermic animals” (priority 2003, dated 2011).
≈ marks a conversion by molar mass, not a printed value.

Columns and labels:
[1] = system: newly emerged larvae of blowfly, Lucilia sericata; experiment: Efficacy against blowfly larvae on treated filter paper discs; details: for LC50: Lucilia sericata
Experimental: In this evaluation, filter paper discs are treated with an acetone solution of test compound and allowed to dry.

adult fleas = experiment: Efficacy against adult fleas on beagles, full body spray; assay type: in vivo; details: full body spray 0.40% (wt/vol), Compound A 20 mg/kg, Standard 14.5 mg/kg body wt.
Experimental: In this evaluation twelve beagles are each infested with 100 unfed adult fleas. Each dog is assessed for its ability to retain fleas by a comb count taken 24 hours post infestation. The dogs are blocked by these flea counts and randomly assigned to one of four treatment groups. Test compounds are applied as a full body spray of a 0.40% (wt/vol) solution of test compound in a mixture of 1% Miglyol in N-methyl-2-pyrrolidinone. One day prior to treatment each dog is infested with 100 fleas and one day post treatment the dogs are comb counted to check for knockdown efficacy. The dogs were subsequently re-infested with fleas and comb counted 24 hours later at weekly intervals.

N#Cc1nn(-c2c(Cl)cc(C(F)(F)F)cc2Cl)c(N)c1[S+]([O-])C(F)(F)F (centres unmarked) [Standard, fipronil]
LC50 ([1]; 24 h): 0.1 mg/L (≈ 0.229 µM)
LC50 ([1]; 48 h): 0.07 mg/L (≈ 0.16 µM)
LC99 ([1]; mortality at 24 h): 0.40 µg/mL
LC99 ([1]; mortality at 48 h): 0.30 µg/mL
% Efficacy relative to nontreated control (adult fleas; 1 DAT): 100%
% Efficacy relative to nontreated control (adult fleas; 7 DAT): 100%
% Efficacy relative to nontreated control (adult fleas; 14 DAT): 100%
% Efficacy relative to nontreated control (adult fleas; 21 DAT): 100%
% Efficacy relative to nontreated control (adult fleas; 28 DAT): 100%
% Efficacy relative to nontreated control (adult fleas; 35 DAT): 100%
% Efficacy relative to nontreated control (adult fleas; 42 DAT): 100%
% Efficacy relative to nontreated control (adult fleas; 49 DAT): 100%
% Efficacy relative to nontreated control (adult fleas; 56 DAT): 100%
% Efficacy relative to nontreated control (adult fleas; 62 DAT): 99.5%
